The results in this text go back to patent US8338334B2, “Synergistic herbicidal composition containing fluroxypyr and quinclorac” (Dow AgroSciences, LLC, priority 2010, dated 2012).

Holding throughout (assay): Postemergence herbicidal activity in the greenhouse, visual weed control
What all share (type): in vivo
Common to all, as to conditions: 21 DAA

The subject of assay [1] is Chinese sprangletop (Leptochloa chinensis; LEFCH). Here is the method: (§1) Seeds of the desired test plant species were planted in 80% mineral soil/20% grit planting mixture, which typically has a pH of 7.2 and an organic matter content of about 2.9 percent, in plastic pots with a surface area of 128 square centimeters (cm^2). The growing medium was steam sterilized. The plants were grown for 7-19 days in a greenhouse with an approximate 14-hour (h) photoperiod which was maintained at about 29° C. during the day and 26° C. during the night. Nutrients and water were added on a regular basis and supplemental lighting was provided with overhead metal halide 1000-Watt lamps as necessary. The plants were treated with postemergence foliar applications when they reached the third to fourth true leaf stage. All treatments were applied using a randomized complete block trial design, with 4 replications per treatment.
(§2) Treatments consisted of the compounds as listed in Table 1 for each compound applied alone and in combination. Formulated amounts of quinclorac and fluroxypyr-meptyl ester were placed in 60 milliliter (mL) glass vials and dissolved in a volume of 60 mL of a water solution containing Agri-dex crop oil concentrate in a 1% volume per volume (v/v) ratio. Compound requirements are based upon a 12 mL application volume at a rate of 187 liters per hectare (L/ha). Spray solutions of the mixtures were prepared by adding the stock solutions to the appropriate amount of dilution solution to form 12 mL spray solution with active ingredients in single and two way combinations. Formulated compounds were applied to the plant material with an overhead Mandel track sprayer equipped with 8002E nozzles calibrated to deliver 187 L/ha at a spray height of 18 inches (43 centimeters (cm)) above average plant canopy.
(§3) The treated plants and control plants were placed in a greenhouse as described above and watered by sub-irrigation to prevent wash-off of the test compounds. Treatments were rated at 21 days after application (DAA) as compared to the untreated control plants. Visual weed control was scored on a scale of 0 to 100 percent where 0 corresponds to no injury and 100 corresponds to complete kill.
(§4) All treatment results, both for the single product and mixtures, are an average of 4 replicates evaluated at 21 days after application, and the tank mix interactions are significant at the […] level.
(§5) Colby's equation was used to determine the herbicidal effects expected from the mixtures (Colby, S. R. Calculation of the synergistic and antagonistic response of herbicide combinations. Weeds 1967, 15, 20-22.).
(§6) The following equation was used to calculate the expected activity of mixtures containing two active ingredients, A and B: Expected=A+B−(A×B/100)

In assay [2] the test system is broadleaf signalgrass (Brachiaria platyphylla; BRAPP). Here is the method:
as §1, §2, §3, §4, §5, §6

Assay [3] has as its system barnyardgrass (Echinochloa crus-galli; ECHCG). Here is the method:
as §1, §2, §3, §4, §5, §6

The mark [4] stands for this setting: fluroxypyr-meptyl 100 g ae/ha alone.
[5] abbreviates: fluroxypyr-meptyl 200 g ae/ha alone.
Setting [6] is: fluroxypyr-meptyl 50 g ae/ha alone.

“And” between values parts separate entries of the source, which are not always exact repeats. Equal entries are not always repeated.

On to `CCCCCCC(C)OC(=O)COc1nc(F)c(Cl)c(N)c1Cl` (centres unmarked) [Fluroxypyr-meptyl], for which the “% Control LEFCH Ob (observed value)” value was 50% in assay [1] (setting [4]); 41% and 42% in assay [1] (setting [5]). For the same compound, the “% Control BRAPP Ob (observed value)” value in assay [2] (setting [6]) was 5%; in assay [2] (setting [4]), 1%; in assay [2] (setting [5]), 5%. Moreover, the “% Control ECHCG Ob (observed value)” value is 0% in assay [3] (setting [6]), 11% in assay [3] (setting [4]) and 6% in assay [3] (setting [5]).
For `O=C(O)c1c(Cl)ccc2cc(Cl)cnc12` [Quinclorac, 3,7-dichloro-8-quinolinecarboxylic acid], the “% Control LEFCH Ob (observed value)” value in assay [1] (quinclorac 26 g ai/ha alone) amounted to 5%; in assay [1] (quinclorac 53 g ai/ha alone), 10%; in assay [1] (quinclorac 110 g ai/ha alone) it was 15%; in assay [1] (quinclorac 220 g ai/ha alone), 11%. For the same compound, the “% Control BRAPP Ob (observed value)” value in assay [2] (quinclorac 26 g ai/ha alone) came out at 5%; in assay [2] (quinclorac 53 g ai/ha alone), 6%; in assay [2] (quinclorac 110 g ai/ha alone), 5%; in assay [2] (quinclorac 220 g ai/ha alone) it was 26%. Moreover, the “% Control ECHCG Ob (observed value)” value in assay [3] (quinclorac 26 g ai/ha alone) was determined as 5%; in assay [3] (quinclorac 53 g ai/ha alone), 6%; in assay [3] (quinclorac 110 g ai/ha alone), 31%; in assay [3] (quinclorac 220 g ai/ha alone), 65%.
